Test results as given in PMC9005681, “Use of AD Informer Set compounds to explore validity of novel targets in Alzheimer's disease pathology” (Alzheimer's & Dementia : Translational Research & Clinical …, 2022).

How the values were obtained:
[1] = biological target: T1, cloned human or rodent CNS receptors, channels, and transporters (PDSP panel) (Homo sapiens, UniProt P08912); assay: PDSP GPCR panel primary binding assays at 10 μM; settings: M5, primary assay; for Mean %: mean inhibition; for Inhibition 1: replicate 1; for Inhibition 2: replicate 2; for Inhibition 3: replicate 3; for Inhibition 4: replicate 4
T1 construct: expressed in transfected cells
T1 sequence (P08912 1-532): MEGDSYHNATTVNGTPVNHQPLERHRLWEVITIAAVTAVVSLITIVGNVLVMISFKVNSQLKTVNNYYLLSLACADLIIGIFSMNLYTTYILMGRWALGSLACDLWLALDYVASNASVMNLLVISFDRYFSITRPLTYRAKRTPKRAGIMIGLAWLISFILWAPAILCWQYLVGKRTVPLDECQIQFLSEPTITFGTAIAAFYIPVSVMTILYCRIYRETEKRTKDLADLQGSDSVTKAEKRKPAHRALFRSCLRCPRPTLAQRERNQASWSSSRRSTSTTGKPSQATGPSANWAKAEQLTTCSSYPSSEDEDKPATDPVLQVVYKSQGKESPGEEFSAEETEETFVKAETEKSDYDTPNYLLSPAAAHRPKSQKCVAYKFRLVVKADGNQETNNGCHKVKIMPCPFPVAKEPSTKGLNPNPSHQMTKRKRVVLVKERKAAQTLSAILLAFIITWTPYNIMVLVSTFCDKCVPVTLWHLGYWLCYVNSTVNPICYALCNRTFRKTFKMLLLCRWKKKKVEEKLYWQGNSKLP
Protocol: (§1) GPCR panel: Screening against the receptors within the PDSP panel offers an assessment of off-target pharmacological activity at cloned human or rodent CNS receptors, channels, and transporters that could confound CNS-related phenotypes. A total of 46–47 primary binding assays were run in quadruplicate on these compounds at 10 μM, with follow-up secondary binding assays in 11-point dose-response in triplicate for select compounds versus select receptors. Secondary binding assays were executed for all receptors where test compound displaced an average of >50% of radio-labeled standard ligand. As an exception, no secondary assays were carried out for H3, PBR, or GABAA. […]

[2] = biological target: T2, cloned human or rodent CNS receptors, channels, and transporters (PDSP panel) (Homo sapiens, UniProt P18089); assay: PDSP GPCR panel primary binding assays at 10 μM; settings: Alpha2B, primary assay; for Mean %: mean inhibition; for Inhibition 1: replicate 1; for Inhibition 2: replicate 2; for Inhibition 3: replicate 3; for Inhibition 4: replicate 4
T2 construct: expressed in transfected cells
T2 sequence (P18089 1-450): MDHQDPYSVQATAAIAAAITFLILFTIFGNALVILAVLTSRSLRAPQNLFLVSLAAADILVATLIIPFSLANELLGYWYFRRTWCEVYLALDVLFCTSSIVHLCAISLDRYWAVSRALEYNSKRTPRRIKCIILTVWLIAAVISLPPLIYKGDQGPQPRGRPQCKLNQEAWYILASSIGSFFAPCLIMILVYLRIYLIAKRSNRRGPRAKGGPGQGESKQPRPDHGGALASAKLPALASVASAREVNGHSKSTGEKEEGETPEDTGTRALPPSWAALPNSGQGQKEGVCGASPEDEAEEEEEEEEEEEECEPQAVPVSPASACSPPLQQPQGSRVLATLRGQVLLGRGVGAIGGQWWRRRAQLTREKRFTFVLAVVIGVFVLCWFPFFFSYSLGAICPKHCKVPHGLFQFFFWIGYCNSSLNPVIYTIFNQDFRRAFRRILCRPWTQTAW
Protocol: as §1

[3] = biological target: T3, cloned human or rodent CNS receptors, channels, and transporters (PDSP panel) (Homo sapiens, UniProt P21918); assay: PDSP GPCR panel primary binding assays at 10 μM; settings: D5, primary assay; for Mean %: mean inhibition; for Inhibition 1: replicate 1; for Inhibition 2: replicate 2; for Inhibition 3: replicate 3; for Inhibition 4: replicate 4
T3 construct: expressed in transfected cells
T3 sequence (P21918 whole entry): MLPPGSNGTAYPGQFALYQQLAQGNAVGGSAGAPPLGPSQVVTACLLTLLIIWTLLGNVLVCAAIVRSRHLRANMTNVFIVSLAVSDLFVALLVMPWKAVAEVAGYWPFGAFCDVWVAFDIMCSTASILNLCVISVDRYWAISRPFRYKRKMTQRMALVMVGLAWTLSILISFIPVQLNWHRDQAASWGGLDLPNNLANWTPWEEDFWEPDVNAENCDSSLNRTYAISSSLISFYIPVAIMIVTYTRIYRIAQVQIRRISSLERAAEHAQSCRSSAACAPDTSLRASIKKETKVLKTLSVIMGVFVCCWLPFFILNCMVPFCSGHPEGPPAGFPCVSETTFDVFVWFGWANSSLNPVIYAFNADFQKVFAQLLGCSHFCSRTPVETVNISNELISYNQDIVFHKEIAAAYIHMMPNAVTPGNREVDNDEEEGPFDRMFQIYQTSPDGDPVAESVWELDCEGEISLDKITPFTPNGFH
Protocol: as §1

[4] = biological target: T4, cloned human or rodent CNS receptors, channels, and transporters (PDSP panel) (Homo sapiens, UniProt P28222); assay: PDSP GPCR panel primary binding assays at 10 μM; settings: 5-HT1B, primary assay; for Mean %: mean inhibition; for Inhibition 1: replicate 1; for Inhibition 2: replicate 2; for Inhibition 3: replicate 3; for Inhibition 4: replicate 4
T4 construct: expressed in transfected cells
T4 sequence (P28222 whole entry): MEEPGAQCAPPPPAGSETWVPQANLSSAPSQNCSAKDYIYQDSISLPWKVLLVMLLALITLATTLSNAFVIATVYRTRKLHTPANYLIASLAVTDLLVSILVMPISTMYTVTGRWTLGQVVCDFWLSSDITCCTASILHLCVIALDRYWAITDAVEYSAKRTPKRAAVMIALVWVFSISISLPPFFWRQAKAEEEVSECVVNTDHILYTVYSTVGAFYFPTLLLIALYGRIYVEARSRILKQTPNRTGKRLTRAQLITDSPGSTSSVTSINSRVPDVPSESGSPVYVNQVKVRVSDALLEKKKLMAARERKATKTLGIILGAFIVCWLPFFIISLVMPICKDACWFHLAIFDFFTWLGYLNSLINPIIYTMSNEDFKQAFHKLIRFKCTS
Protocol: as §1

[5] = biological target: T5, cloned human or rodent CNS receptors, channels, and transporters (PDSP panel) (Homo sapiens, UniProt P35368); assay: PDSP GPCR panel primary binding assays at 10 μM; settings: Alpha1B, primary assay; for Mean %: mean inhibition; for Inhibition 1: replicate 1; for Inhibition 2: replicate 2; for Inhibition 3: replicate 3; for Inhibition 4: replicate 4
T5 construct: expressed in transfected cells
T5 sequence (P35368 1-520): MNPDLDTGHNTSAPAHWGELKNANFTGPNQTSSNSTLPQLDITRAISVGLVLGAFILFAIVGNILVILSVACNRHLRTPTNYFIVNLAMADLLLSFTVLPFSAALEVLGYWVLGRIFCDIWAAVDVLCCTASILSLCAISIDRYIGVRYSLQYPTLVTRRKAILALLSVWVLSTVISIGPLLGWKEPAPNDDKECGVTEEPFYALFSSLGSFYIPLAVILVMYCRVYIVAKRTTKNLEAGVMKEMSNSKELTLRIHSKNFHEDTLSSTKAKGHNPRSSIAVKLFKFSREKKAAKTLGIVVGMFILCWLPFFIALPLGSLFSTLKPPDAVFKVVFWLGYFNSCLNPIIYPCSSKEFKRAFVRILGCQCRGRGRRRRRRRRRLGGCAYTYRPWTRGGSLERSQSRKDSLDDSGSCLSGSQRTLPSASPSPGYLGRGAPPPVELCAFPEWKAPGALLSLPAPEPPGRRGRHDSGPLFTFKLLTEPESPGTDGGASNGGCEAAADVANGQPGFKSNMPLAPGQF
Protocol: as §1

[6] = Snapshot IV PK in CD1 mice; type: in vivo; settings: for clearance: CD1, mouse, plasma, iv, 3 mg/kg; for Cmax / half-life / Vd: CD1, plasma; for Vd: read-out: Vss
Protocol: PK data: For snapshot PK studies, pooled plasma was analyzed at 0.5h, 1h, 2h, and 4h following
a single IV dose (3 mg/kg) in CD1 mice (2 mice per cohort) for each compound (Table 2). […]

cellular system = system: cellular system; set-up: method as in column References for potency and dosing (the 5th table c13); settings: published data; References for potency and dosing; cited from earlier work

| SMILES | Mean % [1] | Inhibition 1 [1] | Inhibition 2 [1] | Inhibition 3 [1] | Inhibition 4 [1] | Mean % [2] | Inhibition 1 [2] | Inhibition 2 [2] | Inhibition 3 [2] | Inhibition 4 [2] | Mean % [3] | Inhibition 1 [3] | Inhibition 2 [3] | Inhibition 3 [3] | Inhibition 4 [3] | Mean % [4] | Inhibition 1 [4] | Inhibition 2 [4] | Inhibition 3 [4] | Inhibition 4 [4] | further results |
| --- | --- | --- | --- | --- | --- | --- | --- | --- | --- | --- | --- | --- | --- | --- | --- | --- | --- | --- | --- | --- | --- |
| CNc1nc(C)nc(N[C@H]2CCC[C@@H](C(=O)NCc3ccc(C#N)cc3C(F)(F)F)C2)n1 [UNC10302679A, GSK2256294A] | -6.81% | 1.27% | -10.6% | -10.81% | -7.08% | 9.85% | 12.19% | 4.49% | 0.5% | 22.22% | -9.97% | 0.61% | -8.1% | -21.39% | -11% | -2.56% | 6.88% | -14.35% | 0.2% | -2.95% | Mean % [5]: -0.37%; Inhibition 1 [5]: -2.21%; Inhibition 2 [5]: 6.62%; Inhibition 3 [5]: -2.78%; Inhibition 4 [5]: -3.12%; clearance [6]: 26.3 mL/min/kg; Cmax ([6]; mouse, 3.0 mg/kg): 4010 ng/mL; half-life ([6]; mouse, 3.0 mg/kg): 0.64 h; Vd ([6]; mouse, 3.0 mg/kg): 0.62 L/kg; Reported as cell active (<10 μM) (cellular system): Y (Published data supports that the compound is active in a cellular system when dosed at 10 μM (Y/N)) |
| CCC(=O)N1CCC(NC(=O)Nc2ccc(OC(F)(F)F)cc2)CC1 [UNC10302681A, TPPU] | -2.23% | 18.08% | -1.14% | -10.91% | -14.93% | 6.32% | 1.27% | 8.98% | 5.54% | 9.47% | -7.53% | -6.27% | -1.22% | -4.28% | -18.34% | -0.64% | 7.08% | 0.59% | -3.14% | -7.08% | Mean % [5]: 7.22%; Inhibition 1 [5]: 0.2%; Inhibition 2 [5]: 16.24%; Inhibition 3 [5]: 7.3%; Inhibition 4 [5]: 5.13%; clearance [6]: 1.3 mL/min/kg; Cmax ([6]; mouse, 3.0 mg/kg): 2140 ng/mL; half-life ([6]; mouse, 3.0 mg/kg): 13.8 h; Vd ([6]; mouse, 3.0 mg/kg): 1.55 L/kg; CL ([6]; mouse, 3.0 mg/kg): 1.31 mL/min/kg; Reported as cell active (<10 μM) (cellular system): Y (Published data supports that the compound is active in a cellular system when dosed at 10 μM (Y/N)) |
